Source: patent US20200017496A1 (priority 2017, published 2020)
Where two headings read alike, the source gives them in different places.

Key:
Experiment in all cases: MIC of compounds alone and combined with antibacterials, broth microdilution (CLSI)
Format in all cases: cell-based
[1] = tested on: Providencia stuartii (PST) isolates; details: AF1 @ 4 μg/mL
Protocol: (§1) Method 2: MIC of Compounds Alone and Combined with Antibacterials Against Bacterial Isolates.
(§2) Compounds of the present invention were assessed against genotyped bacterial strains (Table 3, 4) alone or in combination with an antibacterial (Table 2). […] Log phase bacterial suspensions were adjusted to a final density of 5·10^5 CFU/mL in cation-adjusted Mueller-Hinton broth (ca-MHB; Becton-Dickinson and Company) and added to each well (98 μL). Microplates were incubated for 16-20 h at 35° C. in ambient air. The MIC of the compounds was defined as the lowest concentration of said compounds that prevented bacterial growth as read by visual inspection. The MIC of ATB at each compound concentration was defined as the lowest concentration of ATB that prevented bacterial growth as read by visual inspection.

[2] = tested on: Providencia rettgeri (PRE) isolates
Protocol: as §1, §2

[3] = tested on: Escherichia coli (ECO) isolates; details: AF1 @ 4 μg/mL
Protocol: as §1, §2

[4] = tested on: Morganella morganii (MMO) isolates; details: AF1 @ 4 μg/mL
Protocol: as §1, §2

[5] = tested on: Enterobacter aerogenes (EAE) isolates; details: for MIC ATB in combination: AF1 @ 4 μg/mL; for MIC: Klebsiella aerogenes, ATB alone, read-out: MIC
Protocol: as §1, §2

[6] = tested on: Citrobacter koseri (CKR) isolates; details: for MIC ATB in combination: AF1 @ 4 μg/mL; for MIC: Citrobacter koseri, ATB alone
Protocol: as §1, §2

[7] = tested on: Serratia marcescens (SMA) isolates; details: for MIC: Serratia marcescens, ATB alone, read-out: MIC
Protocol: as §1, §2

C=CC1=C(C(=O)O)N2C(=O)[C@@H](NC(=O)/C(=N\O)c3csc(N)n3)[C@H]2SC1 [CDR, Cefdinir]
MIC ATB in combination ([1]; PST UFR94): <=0.25 μg/mL
MIC ATB in combination ([1]; PST UFR95): 1 µg/mL
MIC ATB in combination ([1]; PST UFR235): 2 µg/mL
MIC ATB in combination ([2]; PRE UFR99, AF1 @ 4 μg/mL): >128 µg/mL
MIC ATB in combination ([2]; strain PRE UFR236, antibacterial combined with AF1 @ 4 μg/mL): 2 µg/mL
MIC ATB in combination ([3]; ECO 4133): <=0.25 μg/mL
MIC ATB in combination ([3]; ECO 5302): <=0.25 μg/mL
MIC ATB in combination ([3]; ECO 131119): <=0.25 μg/mL
MIC ATB in combination ([3]; ECO 180070): <=0.25 μg/mL
MIC ATB in combination ([3]; ECO 190314): <=0.25 μg/mL
MIC ATB in combination ([3]; ECO 190317): <=0.25 μg/mL
MIC ATB in combination ([3]; ECO 190457): <=0.25 μg/mL
MIC ATB in combination ([3]; ECO 190549): <=0.25 μg/mL
MIC ATB in combination ([3]; ECO 200159): <=0.25 μg/mL
MIC ATB in combination ([3]; ECO 200259): <=0.25 μg/mL
MIC ATB in combination ([3]; ECO 200344): <=0.25 μg/mL
MIC ATB in combination ([3]; ECO 260096): <=0.25 μg/mL
MIC ATB in combination ([3]; ECO 260304): <=0.25 μg/mL
MIC ATB in combination ([3]; ECO 260508): <=0.25 μg/mL
MIC ATB in combination ([3]; ECO RGN238): <=0.25 μg/mL
MIC ATB in combination ([3]; ECO UFR15): <=0.25 μg/mL
MIC ATB in combination ([3]; ECO UFR16): 1 µg/mL
MIC ATB in combination ([3]; ECO UFR18): 4 µg/mL
MIC ATB in combination ([3]; ECO UFR19): 2 µg/mL
MIC ATB in combination ([3]; ECO UFR20): 16 µg/mL
MIC ATB in combination ([3]; ECO UFR61O): 0.25 µg/mL
MIC ATB in combination ([3]; ECO UFR62): 0.5 µg/mL
MIC ATB in combination ([3]; ECO UFR74): 1 µg/mL
MIC ATB in combination ([3]; ECO UFR86): 1 µg/mL
MIC ATB in combination ([3]; ECO UFR174): <=0.25 μg/mL
MIC ATB in combination ([3]; ECO UFR175): 0.5 µg/mL
MIC ATB in combination ([3]; ECO UFR176): <=0.25 μg/mL
MIC ATB in combination ([3]; ECO UFR184): 16 µg/mL
MIC ATB in combination ([3]; ECO UFR186): 1 µg/mL
MIC ATB in combination ([3]; ECO UFR187): 0.5 µg/mL
MIC ATB in combination ([3]; ECO UFR189): <=0.25 μg/mL
MIC ATB in combination ([3]; ECO UFR190): 0.5 µg/mL
MIC ATB in combination ([3]; ECO UFR191): 1 µg/mL
MIC ATB in combination ([3]; ECO UFR207): <=0.25 μg/mL
MIC ATB in combination ([3]; ECO UFR209): <=0.25 μg/mL
MIC ATB in combination ([3]; ECO UFR210): <=0.25 μg/mL
MIC ATB in combination ([3]; ECO UFR211): <=0.25 μg/mL
MIC ATB in combination ([3]; ECO UFR212): 32 µg/mL
MIC ATB in combination ([3]; ECO UFR218): <=0.25 μg/mL
MIC ATB in combination ([4]; MMO 200321): 4 µg/mL
MIC ATB in combination ([4]; MMO UFR144): 4 µg/mL
MIC ATB in combination ([4]; MMO UFR240): 0.5 µg/mL
MIC ATB in combination ([4]; MMO UFR241): 4 µg/mL
MIC ATB in combination ([4]; MMO UFR242): 4 µg/mL
MIC ATB in combination ([4]; MMO UFR243): 4 µg/mL
MIC ATB in combination ([4]; MMO UFR244): 2 µg/mL
MIC ATB in combination ([4]; MMO UFR245): 4 µg/mL
MIC ATB in combination ([4]; MMO UFR246): 2 µg/mL
MIC ATB in combination ([4]; MMO UFR247): 1 µg/mL
MIC ATB in combination ([5]; EAE 49469): 16 µg/mL
MIC ATB in combination ([5]; EAE 200261): 8 µg/mL
MIC ATB in combination ([5]; EAE UFR199): 1 µg/mL
MIC ATB in combination ([5]; EAE UFR201): <=0.25 μg/mL
MIC ATB in combination ([5]; EAE UFR202): 4 µg/mL
MIC ATB in combination ([5]; EAE UFR213): 4 µg/mL
MIC ([5]; strain EAE 200261 (TEM-x, AmpC)): > 256 µg/mL
MIC ([5]; strain EAE UFR199 (TEM-1b, SHV-12, KPC-2, OXA-9)): > 256 µg/mL
MIC ATB in combination ([6]; CKO ROU): 2 µg/mL
MIC ATB in combination ([6]; CKO UFR149): 32 µg/mL
MIC ATB in combination ([6]; CKO UFR150): 4 µg/mL
MIC ([6]; strain CKO ROU (TEM-1, SHV-12, CTX-M-15, OXA-1, OXA-48)): > 256 µg/mL
MIC ([6]; strain CKO UFR150 (TEM-1, OXA-48)): > 256 µg/mL
MIC ATB in combination ([7]; SMA UFR30, AF1 @ 4 μg/mL): 1 µg/mL
MIC ATB in combination ([7]; SMA UFR134, AF1 @ 4 μg/mL): 4 µg/mL
MIC ATB in combination ([7]; SMA UFR135, AF1 @ 4 μg/mL): 16 µg/mL
MIC ATB in combination ([7]; SMA UFR136, AF1 @ 4 μg/mL): 16 µg/mL
MIC ATB in combination ([7]; SMA UFR137, AF1 @ 4 μg/mL): 1 µg/mL
MIC ATB in combination ([7]; SMA UFR138, AF1 @ 4 μg/mL): 4 µg/mL
MIC ATB in combination ([7]; SMA UFR139, AF1 @ 4 μg/mL): 4 µg/mL
MIC ATB in combination ([7]; SMA UFR141, AF1 @ 4 μg/mL): 4 µg/mL
MIC ATB in combination ([7]; SMA UFR142, AF1 @ 4 μg/mL): 8 µg/mL
MIC ATB in combination ([7]; SMA UFR143, AF1 @ 4 μg/mL): 2 µg/mL
MIC ATB in combination ([7]; SMA UFR239, AF1 @ 4 μg/mL): 16 µg/mL
MIC ([7]; strain SMA UFR238 (OXA-48)): > 256 µg/mL
MIC ([7]; strain SMA UFR30 (OXA-405)): > 256 µg/mL
MIC ([7]; strain SMA UFR136 (TEM-1, SHV-12, KPC-2)): > 256 µg/mL
MIC ([7]; strain SMA UFR141 (OXA-48)): > 256 µg/mL
MIC ([7]; strain SMA UFR142 (OXA-48)): > 256 µg/mL
MIC ([7]; strain SMA UFR143 (CTX-M-15, OXA-1, OXA-48)): > 256 µg/mL
MIC ATB in combination ([7]; strain SMA UFR238, antibacterial combined with AF1 @ 4 μg/mL): 4 µg/mL
